Measured values from patent publication US12115209B2, “ROMO1-derived antimicrobial peptides including lysine substitution and variants thereof” (KOREA UNIVERSITY RESEARCH AND BUSINESS FOUNDATION, priority 2019, dated 2024).
In brackets after ≈: the same amount, converted by molar mass. Non-standard residues stand in square brackets, D forms with d. Residues, ends and D or L forms follow the SMILES beside them. No end group written: not given here. Nle = CCCC[C@H](N)C(=O)O

Experiments:
Format in all cases: cell-based
[1] = system: Staphylococcus aureus (ATCC 29213); experiment: Minimum bactericidal concentration (MBC) assay; design: MBC Staphylococcus aureus: unit: µg/mL; details: Tables 11-21, no unit printed
Experimental: (§1) First, each of Pseudomonas aeruginosa (ATCC 27853) and Staphylococcus aureus (ATCC 29213) was cultured in 3% (w/v) TSB (tryptic soy broth) liquid medium at 37° C. and 200 rpm for 4 hours, and then further cultured under the same conditions for 3 hours to a concentration of 5×10^6 CFU/ml. Strain solutions were prepared by diluting each of the further cultured strains with SP (sodium phosphate; 10 mM sodium phosphate, 1% TSB) buffer to a final concentration of 2×10^5 CFU/ml.
(§2) Then, each peptide at varying concentrations (0 μg/ml to 300 μg/ml) was dispensed into each well of a 96-well microplate, and 100 μl (1×10^5 CFU/ml) of each of the prepared strain solutions was added thereto, mixed therewith, and allowed to react with the peptide in an incubator at 37° C. for 1 hour.
(§3) In addition, 30 g/L of TS (tryptic soy) and 15 g/L of agar were dissolved in distilled water and sterilized, and then 25 ml of the solution was poured onto a 100 mm round plate and solidified at room temperature for one day or more, thereby preparing a TS agar plate. 10 μl of each reaction solution of the peptide and the strain was plated on the TS agar plate at a constant size, and incubated in an incubator at 37° C. for 18 hours, and then colony formation on the plate was checked. The minimum bactericidal concentration was defined as the minimum concentration of the peptide at which no colony was formed, and the experimental results are shown in Table 1 below.

[2] = system: Pseudomonas aeruginosa (ATCC 27853); experiment: Minimum bactericidal concentration (MBC) assay; design: MBC Pseudomonas aeruginosa: unit: µg/mL; details: Tables 11-21, no unit printed
Experimental: as §1, §2, §3

[3] = system: Methicillin-resistant Staphylococcus aureus (MRSA, ATCC 33591); experiment: Minimum bactericidal concentration (MBC) assay; design: unit: µg/mL; details: Tables 11-21, no unit printed
Experimental: as §1, with “2×10^5 CFU/ml. […]” for “2×10^5 CFU/ml.”
as §3, with “checked.” for “checked. The minimum bactericidal concentration was defined as the minimum concentration of the peptide at which no colony was formed, and the experimental results are shown in Table 1 below.”
Specifically, each type of bacteria was cultured in 3% (w/v) TSB (tryptic soy broth) liquid medium at 37° C. and 200 rpm for 4 hours, and then further cultured under the same conditions for 3 hours to a concentration of 5×10^6 CFU/ml. Strain solutions were prepared by diluting each of the further cultured strains with SP buffer to a final concentration of 2×10^5 CFU/ml.
as §2, with “Then, the KU-5878” for “Then, each”
In addition, 10 μl of each reaction solution of the peptide and the strain was plated on the TS agar plate at a constant size, and incubated in an incubator at 37° C. for 18 hours, and then colony formation on the plate was checked.

[4] = system: CRPA; experiment: Minimum bactericidal concentration (MBC) assay; design: unit: µg/mL; details: Tables 11-21, no unit printed
[5] = system: Pseudomonas aeruginosa, Staphylococcus aureus, CRPA, MRSA; experiment: Increase in antibacterial activity (MBC) compared with KU-5878; details: mark = antibacterial activity increased compared with KU-5878

Compound	MBC Staphylococcus aureus [1]	MBC Pseudomonas aeruginosa [2]	MBC MRSA [3]	MBC CRPA [4]	Increase in activity [5]
CCCC[C@H](NC(=O)CNC(=O)[C@@H](NC(=O)[C@H](C)NC(=O)[C@H](CCCC)NC(=O)[C@H](Cc1ccccc1)NC(=O)[C@@H](NC(=O)CNC(=O)[C@H](Cc1ccccc1)NC(=O)[C@@H](NC(=O)CNC(=O)CNC(=O)[C@H](CO)NC(=O)[C@H](CCC(N)=O)NC(=O)[C@H](CCCC)NC(=O)[C@H](CCCC)NC(=O)[C@@H](NC(=O)[C@@H](N)CCCCN)[C@@H](C)O)[C@@H](C)O)[C@@H](C)O)[C@@H](C)CC)C(=O)NCC(=O)N[C@H](C(=O)N[C@@H](CCCNC(=N)N)C(=O)O)[C@@H](C)CC [KU-5878-4Nle] (H-KT[Nle][Nle]QSGGTFGTF[Nle]AIG[Nle]GIR-OH; N-terminus and C-terminus assumed)	90 µg/mL (≈ 41.8 µM)	110 µg/mL (≈ 51.1 µM)	100 µg/mL (≈ 46.5 µM)	100 µg/mL (≈ 46.5 µM)	antibacterial activity of the peptide was improved
-K-MKKGGKFGTFMAIG-GIR [d 58K 60M 75M]	6 µg/mL	6 µg/mL	8 µg/mL	8 µg/mL	◯
-KMM-KGGKF-TFM-IG-GIR [d 58K 62K 68G 72A 75M]	15 µg/mL	16 µg/mL	18 µg/mL	15 µg/mL	◯
-KMMKK-GKFG-F--IGMGIR [d 58K 64G 69T 71M 72A]	2 µg/mL	2 µg/mL	3 µg/mL	3 µg/mL	◯
-KMMKKGGKFGTF-AIG-GIR [d 58K 71M 75M]	3 µg/mL	4 µg/mL	4 µg/mL	2 µg/mL	◯
-KMMKKGGKFGTF-AIGMGIR [Peptide K4-d58K-d71M]	8 µg/mL	10 µg/mL	10 µg/mL	10 µg/mL	◯
-KMMKKGGKFGTFMAIGMGIR [5878-K4-d58K(=d59K)]	6 µg/mL	2 µg/mL	2 µg/mL	6 µg/mL	◯
KK---KGGKFGTF-AIG-GIR [d 60M 61M 62K 71M 75M]	80 µg/mL	80 µg/mL	80 µg/mL	80 µg/mL	◯
KK-M-KGGKF-TFM-IG-GIR [d 60M 62K 68G 72A 75M]	4 µg/mL	4 µg/mL	5 µg/mL	4 µg/mL	◯
KK-MKKGGKFGTF--IGMGIR [d 60M 71M 72A]	8 µg/mL	8 µg/mL	10 µg/mL	8 µg/mL	◯
KK-MKKGGKFGTF-AIG-GIR [d 60M 71M 75M]	2 µg/mL	2 µg/mL	2 µg/mL	3 µg/mL	◯
KK-MKKGGKFGTF-AIGMGIR [Peptide K4-d60M-d71M]	10 µg/mL	10 µg/mL	12 µg/mL	10 µg/mL	◯
KK-MKKGGKFGTFMAIGMGIR [5878-K4-d60M(=d61M)]	3 µg/mL	2 µg/mL	2 µg/mL	4 µg/mL	◯
KKIIKKGGKFGTFIAIGIGIR [Peptide K4-4MI]	2	3	3	3	◯
KKMM-K-GKF-TFM-IG-GIR [d 62K 64G 68G 72A 75M]	4 µg/mL	4 µg/mL	4 µg/mL	4 µg/mL	◯
KKMM-KGGKF--FM-IG-GIR [d 62K 68G 69T 72A 75M]	8 µg/mL	8 µg/mL	10 µg/mL	8 µg/mL	◯
KKMM-KGGKF-TF--IG-GIR [d 62K 68G 71M 72A 75M]	20 µg/mL	20 µg/mL	25 µg/mL	20 µg/mL	◯
KTMMQSGGTFGTFMAIGMGAR [KU-5878-I77A]	> 300 µg/mL	> 300 µg/mL	> 300 µg/mL	> 300 µg/mL	

Compound	MBC Staphylococcus aureus [1]	MBC Pseudomonas aeruginosa [2]	MBC MRSA [3]	MBC CRPA [4]	Increase in activity [5]
KTMMQSGGTFGTFMAIGMGGR [KU-5878-I77G]	90 µg/mL	80 µg/mL	90 µg/mL	100 µg/mL	
KTMMQSGGTFGTFMAIGMGI [KU-5877]	300 µg/mL	300 µg/mL	> 300 µg/mL	> 300 µg/mL	
KTMMQSGGTFGTFMAIGMGIA [KU-5878-R78A]	> 300 µg/mL	> 300 µg/mL	> 300 µg/mL	> 300 µg/mL	
KTMMQSGGTFGTFMAIGMGIK [KU-5878-R78K]	> 300 µg/mL	> 300 µg/mL	> 300 µg/mL	> 300 µg/mL	
KTMMQSGGTFGTFMAIGMGIRQ [Peptide 5878-Q]	180 µg/mL	150 µg/mL	180 µg/mL	180 µg/mL	
KTMMQSGGTFGTFMAIGMGKR [KU-5878-I77K]	> 300 µg/mL	> 300 µg/mL	> 300 µg/mL	> 300 µg/mL	
KTMMQSGGTFGTFMAIGMGTR [KU-5878-I77T]	> 300 µg/mL	> 300 µg/mL	> 300 µg/mL	> 300 µg/mL	
KTMMQSGGTFGTFMAKGMGIR [KU-5878-I73K]	> 300 µg/mL	> 300 µg/mL	> 300 µg/mL	> 300 µg/mL	
KTMMQSGGTFGTFMAWGMGIR [KU-5878-I73W]	300 µg/mL	300 µg/mL	> 300 µg/mL	300 µg/mL	
KTMMQSGGTFGTFMGIGMGIR [KU-5878-A72G]	> 300 µg/mL	> 300 µg/mL	> 300 µg/mL	> 300 µg/mL	
KTMMQSGGTFGTKMAIGMGIR [KU-5878-F70K]	> 300 µg/mL	> 300 µg/mL	> 300 µg/mL	> 300 µg/mL	
KTMMQSGGTFGTWMAIGMGIR [KU-5878-F70W]	300 µg/mL	300 µg/mL	> 300 µg/mL	300 µg/mL	
KTMMQSGGTWGTFMAIGMGIR [KU-5878-F67W]	80 µg/mL	80 µg/mL	90 µg/mL	80 µg/mL	
KTMMQTGGTFGTFMAIGMGIR [KU-5878-S63T]	> 300 µg/mL	> 300 µg/mL	> 300 µg/mL	> 300 µg/mL	
KTMMRSGGTFGTFMAIGMGIR [KU-5878-Q62R]	80 µg/mL	80 µg/mL	90 µg/mL	80 µg/mL	
KTMMSSGGTFGTFMAIGMGIR [KU-5878-Q62S]	> 300 µg/mL	> 300 µg/mL	> 300 µg/mL	> 300 µg/mL	
RTMMQSGGTFGTFMAIGMGIR [KU-5878-K58R]	120 µg/mL	120 µg/mL	120 µg/mL	120 µg/mL	
